The values below come from patent US20150344540A1, “NOVEL GLP-1 RECEPTOR AGONISTS WITH CHOLESTEROL EFFLUX ACTIVITY” (NOVO NORDISK A/S, priority 2012, published 2015).

Test [1] has as its system Mouse monocyte/macrophage cell line, RAW 264.7. The test is described as follows: Cholesterol efflux assay (3H-cholesterol, macrophage cell line). It is filed as cell-based. The conditions noted are these: RAW 264.7, 4 hrs incubation, 0.1% human serum albumin, ABCA1-mediated efflux.
A further test addresses human GLP-1 receptor (Homo sapiens, UniProt P43220). Briefly: Functional GLP-1 receptor assay, in vitro potency (CRE luciferase; whole cells). It is filed as cell-based. The conditions noted are these: BHK cells expressing human GLP-1 receptor.
Where [2] appears, read: 0% HSA, read-out: GLP1R CRE luc 0% HSA EC50 Mean Value.
Setting [3] is: GLP1R CRE luc 1% HSA EC50 Mean Value, 1% HSA.

In general, EC50 refers to the concentration giving half of the maximal effect.

Where two headings read alike, the source gives them in different places. Where a SMILES comes first, the peptide text is derived from it. [ ]: non-standard residue; d: D form. Aib = CC(C)(N)C(=O)O

Chain of human GLP-1 receptor (P43220 24-463): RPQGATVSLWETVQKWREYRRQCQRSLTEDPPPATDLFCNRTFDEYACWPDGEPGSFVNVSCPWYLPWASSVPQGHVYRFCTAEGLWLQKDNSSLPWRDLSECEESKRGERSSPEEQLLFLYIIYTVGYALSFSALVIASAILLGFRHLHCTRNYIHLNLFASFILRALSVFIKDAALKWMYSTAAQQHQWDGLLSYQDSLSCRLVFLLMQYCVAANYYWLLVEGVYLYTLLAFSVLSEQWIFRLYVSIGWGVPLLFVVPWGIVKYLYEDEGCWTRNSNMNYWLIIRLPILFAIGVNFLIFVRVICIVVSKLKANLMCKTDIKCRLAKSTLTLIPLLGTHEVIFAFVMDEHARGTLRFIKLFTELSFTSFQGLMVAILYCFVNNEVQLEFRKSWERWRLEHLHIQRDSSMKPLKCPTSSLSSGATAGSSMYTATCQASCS

For `CC[C@H](C)[C@H](NC(=O)[C@H](Cc1ccccc1)NC(=O)[C@H](CCC(=O)O)NC(=O)[C@H](CCCNC(=N)N)NC(=O)[C@@H](NC(=O)[C@H](C)NC(=O)[C@H](CCC(=O)O)NC(=O)[C@H](CCC(=O)O)NC(=O)[C@H](CCC(=O)O)NC(=O)[C@H](CCSC)NC(=O)[C@H](CCC(N)=O)NC(=O)[C@H](CCCCN)NC(=O)[C@H](CO)NC(=O)[C@H](CC(C)C)NC(=O)[C@H](CC(=O)O)NC(=O)[C@H](CO)NC(=O)[C@@H](NC(=O)[C@H](Cc1ccccc1)NC(=O)[C@@H](NC(=O)CNC(=O)[C@H](CCC(=O)O)NC(=O)C(C)(C)NC(=O)[C@@H](N)Cc1c[nH]cn1)[C@@H](C)O)[C@@H](C)O)C(C)C)C(=O)N[C@@H](CCC(=O)O)C(=O)N[C@@H](Cc1c[nH]c2ccccc12)C(=O)N[C@@H](CC(C)C)C(=O)N[C@@H](CCCCN)C(=O)N[C@@H](CC(N)=O)C(=O)N[C@@H](CCCCN)C(=O)NC(C)(C)C(=O)N[C@@H](CC(C)C)C(=O)N[C@@H](CCC(=O)O)C(=O)N[C@@H](Cc1ccccc1)C(=O)N[C@@H](CC(C)C)C(=O)N[C@@H](CCC(=O)O)C(=O)N1CCC[C@H]1C(=O)N[C@@H](CC(C)C)C(N)=O` [Compound 39, [Aib2,Glu21,Lys29,Aib30,Leu31,Glu32,Phe33,Leu34,Glu35,Leu371-Exendin-4-(1-37)-peptide amide] (H-H[Aib]EGTFTSDLSKQMEEEAVREFIEWLKNK[Aib]LEFLEPL-NH2; N-terminus assumed), in test [1], the “4 h Cholesterol Efflux Emax” value is reported as 113%. The EC50 on human GLP-1 receptor (setting [2]) came out at 0.032 nM; at human GLP-1 receptor (setting [3]), 0.013 nM.
The corresponding values for `CC[C@H](C)[C@H](NC(=O)[C@H](Cc1ccccc1)NC(=O)[C@H](CCC(=O)O)NC(=O)[C@H](CCCNC(=N)N)NC(=O)[C@@H](NC(=O)[C@H](C)NC(=O)[C@H](CCC(=O)O)NC(=O)[C@H](CCC(=O)O)NC(=O)[C@H](CCC(=O)O)NC(=O)[C@H](CCSC)NC(=O)[C@H](CCC(N)=O)NC(=O)[C@H](CCCCN)NC(=O)[C@H](CO)NC(=O)[C@H](CC(C)C)NC(=O)[C@H](CC(=O)O)NC(=O)[C@H](CO)NC(=O)[C@@H](NC(=O)[C@H](Cc1ccccc1)NC(=O)[C@@H](NC(=O)CNC(=O)[C@H](CCC(=O)O)NC(=O)C(C)(C)NC(=O)[C@@H](N)Cc1c[nH]cn1)[C@@H](C)O)[C@@H](C)O)C(C)C)C(=O)N[C@@H](CCC(=O)O)C(=O)N[C@@H](Cc1c[nH]c2ccccc12)C(=O)N[C@@H](CC(C)C)C(=O)N[C@@H](CCCCN)C(=O)N[C@@H](CC(N)=O)C(=O)N[C@@H](CCCCN)C(=O)NC(C)(C)C(=O)N[C@@H](CC(C)C)C(=O)N[C@@H](CCC(=O)O)C(=O)N[C@@H](Cc1ccccc1)C(=O)N[C@@H](CC(C)C)C(=O)N[C@@H](CCC(=O)O)C(=O)N[C@@H](CC(C)C)C(=O)N1CCC[C@H]1C(N)=O` [Compound 40, [Aib2,Glu21,Lys29,Aib30,Leu31,Glu32,Phe33,Leu34,Glu35,Leu361-Exendin-4-(1-37)-peptide amide] (H-H[Aib]EGTFTSDLSKQMEEEAVREFIEWLKNK[Aib]LEFLELP-NH2; N-terminus assumed) are 91%, 0.023 nM and 0.01 nM.
Turning to `CC[C@H](C)[C@H](NC(=O)[C@H](Cc1ccccc1)NC(=O)[C@H](CCC(=O)O)NC(=O)[C@H](CCCNC(=N)N)NC(=O)[C@@H](NC(=O)[C@H](C)NC(=O)[C@H](CCC(=O)O)NC(=O)CNC(=O)[C@H](CCC(=O)O)NC(=O)[C@H](CC(C)C)NC(=O)[C@H](Cc1ccc(O)cc1)NC(=O)[C@H](CO)NC(=O)[C@H](CO)NC(=O)[C@@H](NC(=O)[C@H](CC(=O)O)NC(=O)[C@H](CO)NC(=O)[C@@H](NC(=O)[C@H](Cc1ccccc1)NC(=O)[C@@H](NC(=O)CNC(=O)[C@H](CCC(=O)O)NC(=O)C(C)(C)NC(=O)[C@@H](N)Cc1c[nH]cn1)[C@@H](C)O)[C@@H](C)O)C(C)C)C(C)C)C(=O)N[C@@H](C)C(=O)N[C@@H](Cc1c[nH]c2ccccc12)C(=O)N[C@@H](CC(C)C)C(=O)N[C@H](C(=O)N[C@@H](CCC(=O)O)C(=O)N[C@@H](CCCNC(=N)N)C(=O)NC(C)(C)C(=O)N[C@@H](CCCNC(=N)N)C(=O)N[C@@H](CCC(=O)O)C(=O)N[C@@H](Cc1ccccc1)C(=O)N[C@@H](CC(C)C)C(N)=O)C(C)C` [Compound 43] (H-H[Aib]EGTFTSDVSSYLEGEAVREFIAWLVER[Aib]REFL-NH2), the “4 h Cholesterol Efflux Emax” value in test [1] amounted to 82%. The EC50 at human GLP-1 receptor (setting [2]) stood at 0.086 nM; on human GLP-1 receptor (setting [3]) it was 0.041 nM.
`CC[C@H](C)[C@H](NC(=O)[C@H](Cc1ccccc1)NC(=O)[C@H](CCC(=O)O)NC(=O)[C@H](CCCCN)NC(=O)[C@@H](NC(=O)[C@H](C)NC(=O)[C@H](CCC(=O)O)NC(=O)CNC(=O)[C@H](CCC(=O)O)NC(=O)[C@H](CC(C)C)NC(=O)[C@H](Cc1ccc(O)cc1)NC(=O)[C@H](CO)NC(=O)[C@H](CO)NC(=O)[C@@H](NC(=O)[C@H](CC(=O)O)NC(=O)[C@H](CO)NC(=O)[C@@H](NC(=O)[C@H](Cc1ccccc1)NC(=O)[C@@H](NC(=O)CNC(=O)[C@H](CCC(=O)O)NC(=O)C(C)(C)NC(=O)[C@@H](N)Cc1c[nH]cn1)[C@@H](C)O)[C@@H](C)O)C(C)C)C(C)C)C(=O)N[C@@H](C)C(=O)N[C@@H](Cc1c[nH]c2ccccc12)C(=O)N[C@@H](CC(C)C)C(=O)N[C@H](C(=O)N[C@@H](CCC(=O)O)C(=O)N[C@@H](CCCCN)C(=O)N[C@@H](Cc1ccccc1)C(=O)N[C@@H](CCCCN)C(=O)N[C@@H](CCC(=O)O)C(=O)N[C@@H](C)C(=O)N[C@@H](Cc1ccccc1)C(N)=O)C(C)C` [Compound 46, [Aib8,Glu23,Val25,Glu34,Lys35,Phe36,Lys37]-GLP-1-(7-37)-peptidyl-Glu-Ala-Phe amide] (H-H[Aib]EGTFTSDVSSYLEGEAVKEFIAWLVEKFKEAF-NH2): the “4 h Cholesterol Efflux Emax” value in test [1] is 98%. On human GLP-1 receptor (setting [2]), the EC50 was 0.372 nM.
For `CC[C@H](C)[C@H](NC(=O)[C@H](Cc1ccccc1)NC(=O)[C@H](CCC(=O)O)NC(=O)[C@H](CCCCN)NC(=O)[C@@H](NC(=O)[C@H](C)NC(=O)[C@H](CCC(=O)O)NC(=O)CNC(=O)[C@H](CCC(=O)O)NC(=O)[C@H](CC(C)C)NC(=O)[C@H](Cc1ccc(O)cc1)NC(=O)[C@H](CO)NC(=O)[C@H](CO)NC(=O)[C@@H](NC(=O)[C@H](CC(=O)O)NC(=O)[C@H](CO)NC(=O)[C@@H](NC(=O)[C@H](Cc1ccccc1)NC(=O)[C@@H](NC(=O)CNC(=O)[C@H](CCC(=O)O)NC(=O)C(C)(C)NC(=O)[C@@H](N)Cc1c[nH]cn1)[C@@H](C)O)[C@@H](C)O)C(C)C)C(C)C)C(=O)N[C@@H](Cc1c[nH]c2ccccc12)C(=O)N[C@@H](Cc1c[nH]c2ccccc12)C(=O)N[C@@H](CC(C)C)C(=O)N[C@H](C(=O)N[C@@H](CCC(=O)O)C(=O)N[C@@H](CCCCN)C(=O)NC(C)(C)C(=O)N[C@@H](CCCCN)C(=O)N[C@@H](CCC(=O)O)C(=O)N[C@@H](Cc1ccccc1)C(=O)N[C@@H](CC(C)C)C(N)=O)C(C)C` [Compound 50, [Aib8,Glu23,Val25,Trp30,Glu34,Lys35,Aib36,Lys37]-GLP-1-(7-37)-peptidyl-Glu-Phe-Leu amide] (H-H[Aib]EGTFTSDVSSYLEGEAVKEFIWWLVEK[Aib]KEFL-NH2), the “4 h Cholesterol Efflux Emax” value in test [1] amounted to 87%. For the same molecule, the EC50 on human GLP-1 receptor (setting [2]) worked out at 0.157 nM.
Take `CC[C@H](C)[C@H](NC(=O)[C@H](Cc1ccccc1)NC(=O)[C@H](CCC(=O)O)NC(=O)[C@H](CCCCN)NC(=O)[C@@H](NC(=O)[C@H](CCCNC(=N)N)NC(=O)[C@H](CCC(=O)O)NC(=O)CNC(=O)[C@H](CCC(=O)O)NC(=O)[C@H](CC(C)C)NC(=O)[C@H](Cc1ccc(O)cc1)NC(=O)[C@H](CO)NC(=O)[C@H](CO)NC(=O)[C@@H](NC(=O)[C@H](CC(=O)O)NC(=O)[C@H](CO)NC(=O)[C@@H](NC(=O)[C@H](Cc1ccccc1)NC(=O)[C@@H](NC(=O)CNC(=O)[C@H](CCC(=O)O)NC(=O)C(C)(C)NC(=O)[C@@H](N)Cc1c[nH]cn1)[C@@H](C)O)[C@@H](C)O)C(C)C)C(C)C)C(=O)N[C@@H](C)C(=O)N[C@@H](Cc1c[nH]c2ccccc12)C(=O)N[C@@H](CC(C)C)C(=O)N[C@H](C(=O)N[C@@H](CCC(=O)O)C(=O)N[C@@H](CCCCN)C(=O)NC(C)(C)C(=O)N[C@@H](CCCCN)C(=O)N[C@@H](CCC(=O)O)C(=O)N[C@@H](Cc1ccccc1)C(=O)N[C@@H](CC(C)C)C(N)=O)C(C)C` [Compound 53, [Aib8,Glu23,Arg24,Val25,Glu34,Lys35,Aib36,Lys37]-GLP-1-(7-37)-peptidyl-Glu-Phe-Leu amide] (H-H[Aib]EGTFTSDVSSYLEGERVKEFIAWLVEK[Aib]KEFL-NH2): the “4 h Cholesterol Efflux Emax” value in test [1] is recorded as 109%. This molecule also had an EC50 at human GLP-1 receptor (setting [3]) of 0.273 nM.
On to `CC[C@H](C)[C@H](NC(=O)[C@H](Cc1ccccc1)NC(=O)[C@H](CCC(=O)O)NC(=O)[C@H](CCCCN)NC(=O)[C@H](C)NC(=O)[C@H](C)NC(=O)[C@H](CCC(=O)O)NC(=O)[C@H](CCC(=O)O)NC(=O)[C@H](CCC(=O)O)NC(=O)[C@H](CC(C)C)NC(=O)[C@H](Cc1ccc(O)cc1)NC(=O)[C@H](CCCCN)NC(=O)[C@H](CO)NC(=O)[C@H](Cc1ccc(O)cc1)NC(=O)[C@H](CC(=O)O)NC(=O)[C@H](CO)NC(=O)[C@@H](NC(=O)[C@H](Cc1ccccc1)NC(=O)[C@@H](NC(=O)CNC(=O)[C@H](Cc1c[nH]cn1)NC(=O)C(C)(C)NC(=O)[C@@H](N)Cc1c[nH]cn1)[C@@H](C)O)[C@@H](C)O)C(=O)N[C@@H](C)C(=O)N[C@@H](Cc1c[nH]c2ccccc12)C(=O)N[C@@H](CC(C)C)C(=O)N[C@@H](CC(C)C)C(=O)N[C@@H](CCC(=O)O)C(=O)N[C@@H](CCCCN)C(=O)NC(C)(C)C(=O)N[C@@H](CCCCN)C(=O)N[C@@H](CCC(=O)O)C(=O)N[C@@H](Cc1ccccc1)C(=O)N[C@@H](CC(C)C)C(N)=O` [Compound 55] (H-H[Aib]HGTFTSDYSKYLEEEAAKEFIAWLLEK[Aib]KEFL-NH2), for which the “4 h Cholesterol Efflux Emax” value in test [1] is on record as 96%. For the same molecule, the values for the EC50 on human GLP-1 receptor (setting [2]) and on human GLP-1 receptor (setting [3]) were 0.08 nM and 0.049 nM, respectively.
